In patent publication US20010053796A1, “Delta-aminolevulinic acid for prevention and treatment of infection microorganisms and parasite” (priority 2000, published 2001):
Marks after values point to notes of the source that are not given here.

Assays:
marine birnavirus (MABV) = assay: Change of virus infection value (TCID50) in culture cells; assay type: cell-based; details: for Infection value by MABV: 8 mM
From the text: In this experiment, change of infection value by virus according to δ-aminolevulinic acid treatment was examined by TCID50 using fish cell line for marine birnavirus (MABV) which infects major marine cultivating fish species, Bastardhalibut, Pagrus major and Sebastes schlegeli and acts as a cause for mass mortality. The virus used in this experiment was isolated from Bastardhalibut of a fish farm nearby Yeosu. Virus infection value was checked in CHSE-214 cell and then used as experimental virus solution. Virus incubation solution and δ-aminolevulinic acid diluted solution were combined with same amount (8 mL) and reacted for 30 min. and then, inoculated to culture cell and incubated at 20° C. Temporary change of virus infection value was compared with that of HBSS reaction virus solution (control).

Edwardsiella tarda [1] = assay: Prevention effect for artificial infection (abdominal injection of bacteria); assay type: in vivo, Sebastes schlegeli; details: for Mortality during Cultivation: dead of 20 fish
Experimental: (§1) The water temperature was maintained at 20° C. (±2° C. ) throughout the experiment.
(§2) As the same method of above Experiment 1, fishes of both control group and experiment group were prepared and artificially infected by direct abdominal injection of Edwardsiella tarda 10^5 CFU per 1 fish. Each experimental fish was moved to fish tanks for monitoring and monitored for mortality according to infection for 2 weeks and viability after 2 weeks.

Staphylococcus sp. [2] = assay: as above; assay type: in vivo, Sebastes schlegeli; details: for Mortality during Cultivation: dead of 20 fish
Experimental: The water temperature was maintained at 20° C. (±2° C. ) throughout the experiment. […]
Bastardhalibut and Sebastes schlegeli were infected by Staphylococcus sp. by abdominal injection with the same method of fish breeding δ-aminolevulinic acid treatment and artificial infection carried out in Experiment 1 and 2. Each experimental fish was moved to fish tanks for monitoring and monitored for mortality according to infection for 2 weeks.

Pseudomonas sp. [3] = assay: as above; assay type: in vivo, Bastardhalibut; details: for Mortality during Cultivation: dead of 20 fish
Experimental: as §1, §2
Bastardhalibut and Sebastes schlegeli were infected by Pseudomonas sp. through abdominal injection with the same method of fish breeding; δ-aminolevulinic acid treatment and artificial infection carried out in Experiment 1 and 2. Each experimental fish was moved to fish tanks for monitoring and monitored for mortality according to infection for 2 weeks.

Edwardsiella tarda [4] = assay: Treatment effect of infected fry by oral administration in feed; assay type: in vivo, Sebastes schlegeli; details: 50 fish, Bastardhalibut
Experimental: (§3) In this example, fry of Bastardhalibut and Sebastes schlegeli (mean body weight 2 g), 50 per each breeding tank, were preliminary-bred for 1 week and stabilized. […] The artificial infection methods were carried out through the digestion method. Pathogenic organisms were applied into fish tanks and introduced into seawater for an hour, wherein the concentration of organisms adjusted to 10^4 CFU/mL. Treatment conditions are as follows; after artificial infection, infected fish were moved to fish tanks and kept in the infection period for 3 days. On the fourth day of infection, 0.1˜50 ppm of δ-aminolevulinic acid for feed were added. The fish were bred for 2 weeks after exchanging with clean seawater and the mortality of fish according to infection was monitored. In the control groups, after each bacteria were identically infected through digestion method, mortality of Bastardhalibut and Sebastes schlegeli according to bacteria infection was identified while breeding with marketing assorted feed without δ-aminolevulinic acid. As a result of this experiment, δ-aminolevulinic acid-treated groups have shown high viability in both Bastardhalibut (Table 20˜Table 23) and Sebastes schlegeli (Table 24˜Table 27).

Pseudomonas sp. [5] = assay: as above; assay type: in vivo, Sebastes schlegeli; details: 50 fish, Bastardhalibut
Experimental: as §3

Staphylococcus sp. [6] = assay: as above; assay type: in vivo, Sebastes schlegeli; details: 50 fish, Bastardhalibut
Experimental: as §3

Streptococcus sp. = assay: as above; assay type: in vivo, Sebastes schlegeli; details: 50 fish, Bastardhalibut
Experimental: as §3

Scutica = assay: Application to Scutica-infected seedling nursery; assay type: in vivo, flatfish; details: 30 ppm formalin day 1, then 1 ppm for 2 hrs on days 2 and 3
Experimental: Seedling was produced in flatfish seedling nursery and flatfish fry in seedling nursery, where marketing had stopped due to the infection of Scutica in a marketing stage (the length 5˜6 cm). They were treated with δ-aminolevulinic acid made by the inventors. Seriously infected fish were collected from seedling nursery and contained in water tanks and treated. On the first day, the fish were treated with 30 ppm formalin and, on the second and third day, were treated δ-aminolevulinic acid at concentration of 1 ppm for 2 hrs. […] Cultivation in a water tank of a fish farm where the ozone treatment system, which can control pathogenic organisms in seawater for cultivating, was applied has shown possibility of normal cultivation.

[7] = test system: CHSE (Chinook Salmon Embryo); details: 24 h
Experimental: δ-aminolevulinic acid feed were prepared to 1.0 M concentration (0. 167 g/mL HBSS) and diluted by 10-fold dilution method. 100 μl of each fish cell line suspension of 2.5×10^5 were placed into 96-well microplate and then, 100 μl of each of the resulting diluted solution, 4 well/dilution unit, were added respectively. Fish cell lines, which were used for this cell toxicity experiment of δ-aminolevulinic acid, were RTG-2 (Rainbow Trout Gonad), FHM (Fathead Minnow Epithelioma) and CHSE (Chinook Salmon Embryo) lotted out from Dr. M. Yoshimizu of the Department of Fisheries, Hokkaido University, Japan. For these experimental cells, 100 U/mL penicillin (Sigma), 100 μl/mL streptomycin (Sigma) and MEM media supplemented with 5% fetal bovine serum (FBS, Gibco) for cell culture were used. Cultured cells in 96-well microplate was incubated for 3 hrs at 15° C. and δ-aminolevulinic acid were added to wells at amounts of 100 μl of 0, 1.0, 10, 50 and 100 mM and incubated for 24 hrs at 18° C. As a control group, instead of δ-aminolevulinic acid, HBSS was added at the same amount. […] Absorbance was measured with an ELISA reader at 570 μl.

[8] = orally, 1.0 ppm in feed, Bastardhalibut
[9] = orally, 10 ppm in feed, Bastardhalibut
[10] = orally, 100 ppm in feed, Bastardhalibut
[11] = to fish tanks, 0.01 ppm, Bastardhalibut
[12] = to fish tanks, 0.1 ppm, Bastardhalibut
[13] = to fish tanks, 1.0 ppm, Bastardhalibut
[14] = feed 0.1 ppm from 4th day of infection
[15] = feed 1.0 ppm from 4th day of infection
[16] = feed 10 ppm from 4th day of infection
[17] = feed 50 ppm from 4th day of infection

SMILES: NCC(=O)CCC(=O)O [δ-aminolevulinic acid]
- Infection value by MABV (marine birnavirus (MABV); 0 days after inoculation): 4.3* Log TCID50/mL
- Infection value by MABV (marine birnavirus (MABV); 1 day after inoculation): 3.8 Log TCID50/mL
- Infection value by MABV (marine birnavirus (MABV); 3 days after inoculation): 3.5 Log TCID50/mL
- Infection value by MABV (marine birnavirus (MABV); 5 days after inoculation): 2.3 Log TCID50/mL
- Infection value by MABV (marine birnavirus (MABV); 7 days after inoculation): <1.8 Log TCID50/mL
- effect on MABV within culture cell system (marine birnavirus (MABV); reacted 30 min before inoculation): inactivated
- Viability (Edwardsiella tarda [1]; orally, 0.01 ppm in feed): 70%
- Mortality during Cultivation (Edwardsiella tarda [1]; orally, 0.01 ppm in feed): 6
- Viability (Edwardsiella tarda [1]; orally, 1.0 ppm in feed): 80%
- Mortality during Cultivation (Edwardsiella tarda [1]; orally, 1.0 ppm in feed): 4
- Viability (Edwardsiella tarda [1]; orally, 10 ppm in feed): 85%
- Mortality during Cultivation (Edwardsiella tarda [1]; orally, 10 ppm in feed): 3
- Viability (Edwardsiella tarda [1]; orally, 100 ppm in feed): 90%
- Mortality during Cultivation (Edwardsiella tarda [1]; orally, 100 ppm in feed): 2
- Viability (Edwardsiella tarda [1]; to fish tanks, 0.01 ppm): 65%
- Mortality during Cultivation (Edwardsiella tarda [1]; to fish tanks, 0.01 ppm): 7
- Viability (Edwardsiella tarda [1]; to fish tanks, 0.1 ppm): 75%
- Mortality during Cultivation (Edwardsiella tarda [1]; to fish tanks, 0.1 ppm): 5
- Viability (Edwardsiella tarda [1]; to fish tanks, 1.0 ppm): 90%
- Mortality during Cultivation (Edwardsiella tarda [1]; to fish tanks, 1.0 ppm): 2
- Viability (Edwardsiella tarda [1]; to fish tanks, 10 ppm): 85%
- Mortality during Cultivation (Edwardsiella tarda [1]; to fish tanks, 10 ppm): 3
- Viability (Staphylococcus sp. [2]; orally, 0.1 ppm in feed): 50%
- Mortality during Cultivation (Staphylococcus sp. [2]; orally, 0.1 ppm in feed): 10
- Viability (Staphylococcus sp. [2]; orally, 1.0 ppm in feed): 55%
- Mortality during Cultivation (Staphylococcus sp. [2]; orally, 1.0 ppm in feed): 9
- Viability (Staphylococcus sp. [2]; orally, 10 ppm in feed): 90%
- Mortality during Cultivation (Staphylococcus sp. [2]; orally, 10 ppm in feed): 2
- Viability (Staphylococcus sp. [2]; orally, 100 ppm in feed): 90%
- Mortality during Cultivation (Staphylococcus sp. [2]; orally, 100 ppm in feed): 2
- Viability (Staphylococcus sp. [2]; to fish tanks, 0.01 ppm): 60%
- Mortality during Cultivation (Staphylococcus sp. [2]; to fish tanks, 0.01 ppm): 8
- Viability (Staphylococcus sp. [2]; to fish tanks, 0.1 ppm): 65%
- Mortality during Cultivation (Staphylococcus sp. [2]; to fish tanks, 0.1 ppm): 7
- Viability (Staphylococcus sp. [2]; to fish tanks, 1.0 ppm): 95%
- Mortality during Cultivation (Staphylococcus sp. [2]; to fish tanks, 1.0 ppm): 1
- Viability (Staphylococcus sp. [2]; to fish tanks, 10 ppm): 90%
- Mortality during Cultivation (Staphylococcus sp. [2]; to fish tanks, 10 ppm): 2
- Viability (Pseudomonas sp. [3]; orally, 0.1 ppm in feed): 60%
- Mortality during Cultivation (Pseudomonas sp. [3]; orally, 0.1 ppm in feed): 8
- Viability (Pseudomonas sp. [3]; [8]): 55%
- Mortality during Cultivation (Pseudomonas sp. [3]; [8]): 9
- Viability (Pseudomonas sp. [3]; [9]): 90%
- Mortality during Cultivation (Pseudomonas sp. [3]; [9]): 2
- Viability (Pseudomonas sp. [3]; [10]): 90%
- Mortality during Cultivation (Pseudomonas sp. [3]; [10]): 2
- Viability (Pseudomonas sp. [3]; [11]): 60%
- Mortality during Cultivation (Pseudomonas sp. [3]; [11]): 8
- Viability (Pseudomonas sp. [3]; [12]): 70%
- Mortality during Cultivation (Pseudomonas sp. [3]; [12]): 6
- Viability (Pseudomonas sp. [3]; [13]): 90%
- Mortality during Cultivation (Pseudomonas sp. [3]; [13]): 2
- Viability (Pseudomonas sp. [3]; to fish tanks, 10 ppm): 90%
- Mortality during Cultivation (Pseudomonas sp. [3]; to fish tanks, 10 ppm): 2
- Viability (Edwardsiella tarda [4]; [14]): 52%
- Viability (Edwardsiella tarda [4]; [15]): 62%
- Viability (Edwardsiella tarda [4]; [16]): 68%
- Viability (Edwardsiella tarda [4]; [17]): 88%
- Viability (Pseudomonas sp. [5]; [14]): 52%
- Viability (Pseudomonas sp. [5]; [15]): 78%
- Viability (Pseudomonas sp. [5]; [16]): 86%
- Viability (Pseudomonas sp. [5]; [17]): 84%
- Viability (Staphylococcus sp. [6]; [14]): 48%
- Viability (Staphylococcus sp. [6]; [15]): 70%
- Viability (Staphylococcus sp. [6]; [16]): 78%
- Viability (Staphylococcus sp. [6]; [17]): 88%
- Viability (Streptococcus sp.; [14]): 44%
- Viability (Streptococcus sp.; [15]): 66%
- Viability (Streptococcus sp.; [16]): 72%
- Viability (Streptococcus sp.; [17]): 82%
- examination of infection through sampling of fish body (Scutica; after 2 weeks of cultivation): no infection by Scutica
- vitality of treated fish (Scutica; after 1 day of treatment): highly improved
- safe range of toxicity [7]: below 10 mM
